This passage reports Activity results from ChEMBL document CHEMBL4814055, “Design, synthesis and molecular modeling studies of novel mesalamine linked coumarin for treatment of inflammatory bowel disease” (Bioorg Med Chem Lett, 2021).

The source made the active and inactive calls. The rule behind the calls is not given here.

Data set [1] concerns Rattus norvegicus. The data set can be described thus: Anti-ulcerative colitis activity in acetic acid-induced Wistar rat ulcerative colitis model assessed as reduction in infiltration of inflammatory cells in colon at 400 mg/kg, po administrated for 14 days by microscopic analysis. It is filed as functional, organism-based. The note with it: time 14.0 day.
Data set [2] concerns Rattus norvegicus. The data set can be described thus: Anti-ulcerative colitis activity in acetic acid-induced ulcerative colitis Wistar rat model assessed as change in stool uniformity at 400 mg/kg, po administrated for 14 days. In kind it is functional, organism-based. The note with it: time 14.0 day.
In data set [3] the test system is Rattus norvegicus. Nature of the data set: Anti-ulcerative colitis activity in acetic acid-induced ulcerative colitis Wistar rat model assessed as body weight recovery measured as body weight gain at 400 mg/kg, po administrated for 14 days relative to control. It is filed as functional. The note with it: time 14 day.
In data set [4] the test system is Rattus norvegicus. Nature of the data set: Anti-ulcerative colitis activity in acetic acid-induced ulcerative colitis Wistar rat model assessed as reduction in acetic acid-induced lipid peroxidation by measuring reduction in MDA level in colon at 400 mg/kg, po administrated for 14 days. It is filed as functional, organism-based. The conditions noted are these: time 14.0 day.

Data set [5] relates to Rattus norvegicus. Nature of the data set: Anti-ulcerative colitis activity in acetic acid-induced ulcerative colitis Wistar rat model assessed as reduction in acetic acid-induced oxidative stress by measuring increase in SOD level in colon at 400 mg/kg, po administrated for 14 days by UV spectrophotometric analysis. It is filed as functional, organism-based. The note with it: time 14.0 day.

Data set [6] has as its system Rattus norvegicus. Nature of the data set: Anti-ulcerative colitis activity in acetic acid-induced ulcerative colitis Wistar rat model assessed as reduction in damage of mucosa in colon at 400 mg/kg, po administrated for 14 days by microscopic analysis. The note with it: time 14.0 day. In kind it is functional, organism-based.
In data set [7] the test system is Rattus norvegicus. Nature of the data set: Anti-ulcerative colitis activity in acetic acid-induced ulcerative colitis Wistar rat model assessed as reduction in sub-mucosal edema in colon at 400 mg/kg, po administrated for 14 days by microscopic analysis. In kind it is functional, organism-based. The note with it: time 14.0 day.
Data set [8] relates to Rattus norvegicus. The data set can be described thus: Anti-ulcerative colitis activity in acetic acid-induced ulcerative colitis Wistar rat model assessed as mild deformation of mucosal layer with disruption of epithelium in colon at 400 mg/kg, po administrated for 14 days by microscopic analysis. It is filed as functional, organism-based. The note with it: time 14.0 day.

Data set [9] concerns Rattus norvegicus. The data set can be described thus: Anti-ulcerative colitis activity in acetic acid-induced ulcerative colitis Wistar rat model assessed as reduction in diarrhea at 400 mg/kg, po administrated for 14 days and measured during initial 5 to 6 days of treatment. In kind it is functional, organism-based. The note with it: time 5-6 day.
Data set [10] deals with Rattus norvegicus. Nature of the data set: Anti-ulcerative colitis activity in acetic acid-induced ulcerative colitis Wistar rat model assessed as reduction in onset of diarrhea at 400 mg/kg, po administrated for 14 days and measured during initial 8 to 9 days of treatment. In kind it is functional, organism-based. The note with it: time 8-9 day.
The test system of data set [11] is Rattus norvegicus. Nature of the data set: Anti-ulcerative colitis activity in acetic acid-induced ulcerative colitis Wistar rat model assessed as reduction in blood content in feces with parrot green to green dotted colour at 400 mg/kg,po administrated for 14 days. In kind it is functional, organism-based. The conditions noted are these: time 14.0 day.
Data set [12] deals with Rattus norvegicus. Nature of the data set: Anti-ulcerative colitis activity in acetic acid-induced ulcerative colitis Wistar rat model assessed as normal mucosa without cryptic loss in colon at 400 mg/kg, po administrated for 14 days by microscopic analysis. It is filed as functional, organism-based. The note with it: time 14.0 day.
Data set [13] is described as follows: Toxicity in albino rat assessed as lethality at 2000 mg/kg. It is filed as organism-based. The note with it: in vivo.
Data set [14] in a line: Toxicity in albino rat assessed as toxic signs at 300 mg/kg observed for 14 days. It is filed as organism-based. The conditions noted are these: in vivo, 336 h, time 14 day.
Data set [15] can be described thus: Toxicity in albino rat assessed as toxic symptoms at 300 mg/kg observed for 14 days. In kind it is organism-based. The note with it: in vivo, 336 h, time 14 day.
Data set [16] can be described thus: Toxicity in albino rat assessed as behavioral changes at 300 mg/kg observed for 14 days. In kind it is organism-based. The note with it: in vivo, 336 h, time 14 day.
For data set [17], the system named is Rattus norvegicus. Nature of the data set: Anti-ulcerative colitis activity in acetic acid-induced ulcerative colitis Wistar rat model assessed as restoration of normal stool consistency at 400 mg/kg, po administrated for 14 days and measured during initial 4-5 days of treatment. It is filed as functional, organism-based. The note with it: time 4-5 day.
Data set [18] concerns Rattus norvegicus. Nature of the data set: Anti-ulcerative colitis activity in acetic acid-induced ulcerative colitis Wistar rat model assessed as decrease in bleeding at 400 mg/kg, po administrated for 14 days and measured during initial 4-5 days of treatment. It is filed as functional, organism-based. The note with it: time 4-5 day.
For data set [19], the system named is Rattus norvegicus. Nature of the data set: Anti-ulcerative colitis activity in acetic acid-induced ulcerative colitis Wistar rat model assessed as reduction in blood content in feces without change in feces colour at 400 mg/kg, po administrated for 14 days. In kind it is functional, organism-based. The note with it: time 14.0 day.

For the compound `Nc1ccc(O)c(C(=O)O)c1` [MESALAMINE], the outcome with Rattus norvegicus [1], in the data set on Rattus norvegicus [2], in the data set with Rattus norvegicus [4], in the data set on Rattus norvegicus [5], with Rattus norvegicus [6] and with Rattus norvegicus [7] was Active. The outcome with Rattus norvegicus [9], in the data set with Rattus norvegicus [10] and in the data set on Rattus norvegicus [11] was Active. For the same compound, the Activity in the data set on Rattus norvegicus [3] turned out to be 88%. Also, in the data set on Rattus norvegicus [8], the result was inactive.

`Cc1cc(=O)oc2c(/N=N/c3ccc(O)c(C(=O)O)c3)c(O)ccc12`: the result in the data set with Rattus norvegicus [12], with Rattus norvegicus [2], in the data set with Rattus norvegicus [17], in the data set on Rattus norvegicus [18], with Rattus norvegicus [19] and with Rattus norvegicus [4] was Active. In addition, the outcome in the data set with Rattus norvegicus [5], with Rattus norvegicus [9] and with Rattus norvegicus [10] was Active. Further, the Activity result in data set [13] is “Toxic”; in data set [14], “Non-Toxic”; in data set [15], “Non-Toxic”; in [16] it was “Non-Toxic”; in the data set with Rattus norvegicus [3], 92%.
